“Also recorded” adds a separate entry of the source.
Experiments:
Type in all cases: cell-based
OCM1 = assay: Drug treatment on cancer cell lines, cell counting; settings: BRAF mutant melanoma
Description: (§1) DMSO was used for control.

SKN-BE(2) = assay: Drug treatment on cancer cell lines, cell counting; settings: neuroblastoma
Description: as §1

HELA = assay: Drug treatment on cancer cell lines, cell counting; settings: cervical cancer with HPV infection
Description: as §1

MCF7 = assay: Drug treatment on cancer cell lines, cell counting; settings: PIK3CA mutant breast cancer
Description: as §1

H3122 = assay: Drug treatment on cancer cell lines, cell counting; settings: NSCLC with EML4-ALK fusion
Description: as §1

H1417 = assay: Drug treatment on cancer cell lines, cell counting; settings: RB1 mutant SCLC
Description: as §1

H2228 = assay: Drug treatment on cancer cell lines, cell counting; settings: NSCLC with EML4-ALK fusion
Description: as §1

MDM2, p53 in A549 = assay: MDM2 and p53 status after drug treatment; settings: A549, day 2
[1] = system: Rb, CDK2, Emi1, SKP2 in HCT116; assay: Western blot after drug treatment; settings: HCT116, day 2
Description: […] Sample buffer was added and heated at 95° C. for 5 min before PAGE or for storage at −80° C. Frozen samples were heated again for 5 min before PAGE.

PC3 = assay: Drug treatment on cancer cell lines, cell counting; settings: PTEN mutant prostate cancer
Description: as §1

H2030 = assay: Drug treatment on cancer cell lines, cell counting; settings: KRAS mutant NSCLC
Description: as §1

H1975 = assay: Drug treatment on cancer cell lines, cell counting; settings: EGFR mutated lung cancer
Description: as §1

PC941102 = assay: Drug treatment on cancer cell lines, cell counting; settings: KRAS mutated pancreatic cancer (PC1102)
Description: as §1

H3255 = assay: Drug treatment on cancer cell lines, cell counting; settings: EGFR mutated lung cancer
Description: as §1

LnCap = assay: Drug treatment on cancer cell lines, cell counting
Description: as §1

H460 = assay: Drug treatment on cancer cell lines, cell counting; settings: KRAS mutant NSCLC
Description: as §1

MDA-MB-468 = assay: Drug treatment on cancer cell lines, cell counting
Description: as §1

H446 = assay: Drug treatment on cancer cell lines, cell counting
Description: as §1

CCCL13 = assay: Drug treatment on cancer cell lines, cell counting; settings: KRAS mutant colon cancer
Description: as §1

C918 = assay: Drug treatment on cancer cell lines, cell counting; settings: melanoma
Description: as §1

PC930201 = assay: Drug treatment on cancer cell lines, cell counting; settings: KRAS mutated pancreatic cancer (PC0201)
Description: as §1

IMR32 = assay: Drug treatment on cancer cell lines, cell counting; settings: neuroblastoma
Description: as §1

PC931019 = assay: Drug treatment on cancer cell lines, cell counting
Description: as §1

H820 = assay: Drug treatment on cancer cell lines, cell counting; settings: EGFR mutated lung cancer
Description: as §1

H1650 = assay: Drug treatment on cancer cell lines, cell counting; settings: EGFR mutated lung cancer
Description: as §1

HepG2 = assay: Drug treatment on cancer cell lines, cell counting; settings: hepatoma
Description: as §1

MDA-MB-453 = assay: Drug treatment on cancer cell lines, cell counting; settings: HER2 positive breast cancer
Description: as §1

H1755 = assay: Drug treatment on cancer cell lines, cell counting; settings: BRAF mutated NSCLC
Description: as §1

H358 = assay: Drug treatment on cancer cell lines, cell counting; settings: KRAS mutant NSCLC
Description: as §1

Cdh1 in A549 = assay: Cdh1 localisation after treatment; settings: lung cancer cells A549
Description: Colon cancer or lung cancer cells were passaged to dishes with coverslips, and incubated in a humidified incubator at 5% CO2 and 37° C. for 1-2 days. The medium was removed and the cells fixed in 4% PFA/PBS for 5 min, gently rinsed with 0.15 M NaCl/20 mM Tris (pH 8.0; TBS), dried, and stored at −20° C.
Staining with mouse antibodies: Cells were treated with 1 mM EDTA/PBS for 5 min at room temperature and, washed with PBS. Cells were treated with ABC kit reagent A (Vector Laboratories, Burlingame, Calif.) in PBS for 15 min, washed in TBS, treated with ABC kit reagent B (Vector Laboratories) in TBS for 15 min, washed in PBS, blocked and permeabilized for 20 min in block 1 (2.5% horse serum, 2.5% donkey serum, 2.5% human serum, 1% BSA, 0.1% Triton-X-100, and 0.05% Tween-20 in TBS; filtered with 0.22 um filter), incubated in the above mouse primary antibodies in block 1 overnight at 4° C., and washed in PBS. […]
Co-staining analyses with other antibodies: On completing the first staining reaction as described above, cells were incubated in block 1 for 20 min, incubated overnight with primary antibody in block 1, washed in PBS, incubated for 30 min in block 1 with Cy3 or Cy5 conjugated secondary antibody, and washed in PBS. […] Mounting Media (Vector Labs), and analyzed by inverted immunofluorescent microscopy (Axioplan2 Imaging, Carl Zeiss MicroImaging, LLC).

C=C(c1ccc(C(=O)O)cc1)c1cc2c(cc1C)C(C)(C)CCC2(C)C [Bexarotene]
cell growth (OCM1): suppressed growth | cell growth (OCM1; listed as bexarotene): significantly suppresses | cell growth (SKN-BE(2)): suppressed growth | cell growth (SKN-BE(2); listed as bexarotene): significantly suppresses | cell growth (HELA): suppressed growth | cell growth (HELA; listed as bexarotene): significantly suppresses | cell growth (MCF7): suppressed growth | cell growth (MCF7; listed as bexarotene): significantly suppresses | cell growth (H3122): suppressed growth | cell growth (H3122; listed as bexarotene): significantly suppresses | cell growth (H1417): suppressed growth | cell growth (H2228): suppressed growth | cell growth (H2228; listed as bexarotene): significantly suppresses

CN1c2ccc([N+](=O)[O-])cc2N=C(c2ccc(C(=O)O)cc2)c2cc3c(cc21)C(C)(C)CCC3(C)C [HX531]
MDM2 and p53 status (MDM2, p53 in A549): MDM2 downregulation and inactivation, p53 phosphorylation and activation | MDM2 and p53 status (MDM2, p53 in A549; listed as H531): MDM2 downregulation and inactivation, and p53 phosphorylation and activation | Western blot: Rb phosphorylation, CDK2, Emi1, SKP2 [1]: SKP2 degradation was also observed; also recorded: RB de-phosphorylation and downregulation of CDK2, Emi1, and SKP2; also recorded: significant Emi1 downregulation and inactivation of Emi1, and degradation of SKP2; also recorded: dephosphorylated Rb and downregulated CDK2, Emi1, and SKP2 | cell growth (PC3): inhibition; also recorded: sensitive | cell growth (H2030): inhibition | cell growth (H1975): inhibition; also recorded: sensitive | cell growth (PC941102): inhibition; also recorded: sensitive | cell growth (H3255): inhibition; also recorded: sensitive | sensitivity of cell lines to treatment (LnCap; HX531 6 uM (FIG. 22)): sensitive | cell growth (LnCap; PTEN mutant prostate cancer): inhibition | cell growth (H460): inhibition | sensitivity of cell lines to treatment (MDA-MB-468; HX531 6 uM (FIG. 22)): sensitive | cell growth (MDA-MB-468; PTEN mutant breast cancer): inhibition | sensitivity of cell lines to treatment (H446; HX531 6 uM (FIG. 22)): sensitive | cell growth (H446; SCLC): inhibition | cell growth (CCCL13): inhibition | cell growth (C918): growth inhibition is observed | cell growth (PC930201): inhibition; also recorded: sensitive | cell growth (IMR32): growth inhibition is observed | cell growth (PC931019; KRAS mutated pancreatic cancer (PC1019)): inhibition; also recorded: sensitive | growth inhibition, single agent (PC931019; day 9, 6 uM HX531, 10 uM PD98059, 100 nM PD0325901): growth inhibition | cell growth (H820): inhibition; also recorded: sensitive | cell growth (H1650): inhibition; also recorded: sensitive | cell growth (HepG2): growth inhibition is observed | cell growth (MDA-MB-453): growth inhibition is observed | cell growth (H1755): growth inhibition is observed | cell growth (H358): inhibition | Cdh1 localisation (Cdh1 in A549): Cdh1 nuclear translocation

— patent publication US20130324520A1, “RXRG MODULATORS FOR THE TREATMENT OF CANCER” (SLOAN-KETTERING INSTITUTE FOR CANCER RESEARCH, priority 2011, published 2013)
